From US9782464B2, “Methods and compositions for inhibiting diseases of the central nervous system” (Board of Regents of the University of Nebraska, priority 2008, dated 2017)

Experiments:
SPC (spleen cells) = assay: Antigen-specific 3H-thymidine proliferation of SPC from immunized mice; format: cell-based, mouse; details: B10.BR mice immunized in CFA/IFA
[1] = system: anti-CD3 stimulated T cells; assay: Proliferation of anti-CD3 activated T cells with 4YSyn or N-4YSyn; format: cell-based, mouse; details: 1, 3, 10 and 30 μg/ml
Procedure: For proliferation analyses, purified T cells from naive B6 mice were plated with SPC irradiated at 3000 rad (1:3) at 2×10^6 cells/ml in complete RPMI tissue culture media and activated with anti-CD3 (0.5 μg/ml, 145-2C11; BD Pharmingen) in U-bottom 96-well tissue culture plates. Graded concentrations of 4YSyn or N-4YSyn were added to quadruplicate wells. After activation for 3 days, ^3H-thymidine incorporation was performed as described previously.

[2] = system: anti-CD3 stimulated T cells; assay: PI uptake cytotoxicity of anti-CD3 stimulated T cells (flow cytometry); format: cell-based, mouse; details: 24 hours
Procedure: To assess α-Syn-mediated cytotoxicity, purified T cells were stimulated with anti-CD3 and cultured at a density of 1×10^6 cells/ml for 24 hours in media alone or in the presence of 4YSyn or N-4YSyn at concentrations of 1, 3, 10, or 30 μg/ml. Cells were stained with PI, washed and the percentages of PI^+ dead cells and MFI were analyzed by flow cytometry.

B6 SOD1 Tg mice = assay: COP-1 immunization of B6 SOD1 Tg mice
TH+ neurons in the SN = assay: Chronic MPTP intoxication, TH+ neuron counts in SN of WT and SCID mice; format: in vivo, mouse
Procedure: For chronic intoxication, B6 mice received 5 intraperitoneal (i.p.) injections at 24 hour intervals for 5 days of either vehicle (PBS, 10 ml/kg) or MPTP-HCl (30 mg/kg of free base in PBS) (Sigma-Aldrich, St. Louis, Mo.). For acute intoxication, mice received 4 i.p. injections, one every 2 hours, of either vehicle (PBS, 10 ml/kg) or MPTP-HCl (18 mg/kg of free base in PBS for B10.BR mice, 14 or 18 mg/kg for B6 mice). At selected time points following MPTP intoxication, mice were sacrificed and brains processed for subsequent analyses. MPTP handling and safety measures were in accordance with published guidelines (Przedborski et al. (2001) J. Neurochem., 76:1265-1274).
At the time points indicated following MPTP intoxication, mice were transcardially perfused with 4% paraformaldehyde (PFA) in 0.1 M PBS using 0.9% saline as vascular rinse. Brains were post-fixed in 4% PFA overnight, kept in 30% sucrose for 2 days, snap frozen, embedded in OCT compound, and […] sections cut on a cryostat (CM1900, Leica, Bannockburn, Ill.). The sections were collected in PBS and processed free-floating. […] Fluoro-Jade C (Chemicon International, Inc., Temecula, Calif.) was used to stain degenerating neurons (Schmued et al. (2005) Brain Res., 1035:24-31) and was detected as green fluorescence by fluorescence microscopy with FITC filter (Eclipse E800, Nikon, Inc., Melville, N.Y.). […]

[3] = system: MPTP-intoxicated B10.BR mice; assay: Adoptive transfer of immune SPC or T cells to MPTP-treated B10.BR mice; format: in vivo, mouse
MPTP-intoxicated B6 mice = assay: Adoptive transfer of immune SPC to MPTP-treated B6 mice; format: in vivo, mouse; details: day 7
MPTP-intoxicated mice [4] = assay: Adoptive transfer of N-4YSyn and VIP SPC or Treg to MPTP-intoxicated mice (Example 6); format: in vivo, mouse
Procedure: (§1) Recombinant C-terminal tail of α-syn (4YSyn) was purified, nitrated (N-4YSyn), and tested for endotoxin as described. Male C57BL/6J mice and FoxP3-GFP knock in C57BL/6J mice (5 weeks old, The Jackson Laboratory) were immunized with N-4YSyn emulsified in adjuvant as described. […] Recipient mice received four i.p. injections at 2 hour intervals of either vehicle (PBS, 10 mL/kg bodyweight) or MPTP-HCl (16 mg MPTP/kg bodyweight of free base in PBS; Sigma-Aldrich). Twelve hours after the last injection, MPTP-intoxicated mice received adoptive transfers of whole SPC, Treg or no cells (n=5-7 mice per group per time point). On days 2 and 7 post-MPTP, mice were sacrificed and brains were processed for analysis. […] MPTP safety measures were in accordance with published guidelines (Przedborski et al. (2001) J. Neurochem., 76:1265-1274).
Seven days following treatment, mice were sacrificed and single cell suspensions were prepared from inguinal lymph nodes and spleens. CD4+ T cell populations from spleens and lymph nodes were enriched by negative selection with CD4-enrichment columns (R & D Systems) followed by CD25-PE positive selection with AutoMACS (Miltenyi Biotec). […] Proliferation and inhibition assays were performed as described. MPTP-intoxicated mice received an i.v. tail injection of 5×10^7 SPC or 1×10^6 Treg in 0.25 ml of HBSS.
Mice were transcardially-perfused with PBS followed by 4% paraformaldehyde (PFA, Sigma). Frozen midbrain sections (30 μm) were immunostained for Mac-1 (CD11b, 1:1000; Serotec). Fluorojade C staining (Millipore) was performed on adjacent sections according to manufacturer's protocol to assess degenerating neurons and quantified using ImageJ. Overall dopaminergic neuron survival was assessed seven days following MPTP intoxication and resolution of cell death processes with polyclonal antibody to mouse Tyrosine hydroxylase (TH), 1:1000 (Calbiochem) and counterstained for Nissl substance by thionin staining (Tieu et al. (2003) J. Clin. Invest., 112:892-901) as previously described (Benner et al. (2004) Proc. Natl. Acad. Sci., 101:9435-9440). Total numbers of Mac-1^+ cells, […] and Nissl-stained neurons in the SNpc were estimated by stereological analysis with StereoInvestigator software (MicroBrightfield) using the optical fractionator module (Liberatore et al. (1999) Nat. Med., 5:1403-1409). Quantitation of striatal TH (1:500; Calbiochem) was performed by densitometric analysis as described (Benner et al. (2004) Proc. Natl. Acad. Sci., 101:9435-9440). Adjacent midbrain sections were immunostained for CD4 (L3T4; 1:200, BD Pharmingen). Sections were incubated in streptavidin-horseradish peroxidase (HRP) solution (ABC Elite vector kit, Vector Laboratories), and color developed using a generation system consisting of diaminobenzidine (DAB) chromogen (Sigma-Aldrich) as described (Benner et al. (2004) Proc. Natl. Acad. Sci., 101:9435-9440).

MPTP-intoxicated mice [5] = assay: Adoptive transfer of polarized N-4YSyn CD4+ T cell subsets to MPTP-intoxicated mice; format: in vivo, mouse; details: 7 days after MPTP
Procedure: as §1
CD4+ T cells were isolated from N-4YSyn immunized donors and cultured 1×10^6/ml CD4+ T cells with 2×10^6/ml irradiated SPC and […] N-4YSyn in 20 ml of complete RPMI 1640 supplemented with 10% FBS, 2 mM L-glutamine, 10 mM HEPES, 55 μm 2-mercaptoethanol, 100 units/ml penicillin, and 100 μg/ml streptomycin in T25 flasks. […]
Mice were transcardially-perfused with PBS followed by 4% paraformaldehyde (PFA, Sigma). […] Fluorojade C staining (Millipore) was performed on adjacent sections according to manufacturer's protocol to assess degenerating neurons and quantified using ImageJ. Overall dopaminergic neuron survival was assessed seven days following MPTP intoxication and resolution of cell death processes with polyclonal antibody to mouse Tyrosine hydroxylase (TH), 1:1000 (Calbiochem) and counterstained for Nissl substance by thionin staining (Tieu et al. (2003) J. Clin. Invest., 112:892-901) as previously described (Benner et al. (2004) Proc. Natl. Acad. Sci., 101:9435-9440). […] Quantitation of striatal TH (1:500; Calbiochem) was performed by densitometric analysis as described (Benner et al. (2004) Proc. Natl. Acad. Sci., 101:9435-9440). […]

MES23.5 cells = assay: Cathepsin B inhibition and neurotoxicity, microglial supernatants on MES23.5 cells; format: cell-based; details: inhibitor 1 μM, N-α-syn 100 nM
Procedure: MES 23.5 cells were cultured in 75-cm^2 flasks in DMEM/F12 with 15 mM HEPES (Invitrogen) containing N2 supplement (Invitrogen), 100 U/ml of penicillin, 100 μg/ml streptomycin, and 5% FBS. MES23.5 cells is a cell line derived using somatic cell fusion of rat embryonic mesencephalon cells and the murine neuroblastoma-glioma cell line N18TG2 that produce dopamine and express tyrosine hydroxylase (Crawford et al. (1992) J. Neuroscience 12:3392-3398). Cells were grown to 80% confluence then plated at a density of 10×10^4 cells on sterile glass coverslips. Microglia were plated in 6 well plates and incubated for 1 hour with or without 1 μM of cathepsin B inhibitors, CA-074 [cell impermeable] or CA-074 Me [cell permeable] (Sigma), in a 37° C., 5% CO2 incubator to inhibit residual cathepsin B expression (Gan et al. (2004) J. Biol. Chem., 279:5565-5572). […] MES 23.5 cell viability was assessed using the Live/Dead cytotoxicity assay (Invitrogen) as previously described. Live cells were distinguished by the uptake of calcein AM to acquire a green fluorescence [excitation/emission (ex/em) 495/515 nm], while dead cells acquired a red fluorescence (ex/em 495/635 nm) due to the uptake of ethidium homodimer-1 (EthD-1). Cell enumerations were performed using fluorescence microscopy (200× magnification, n=6 wells per group, 3 frames per well).

In the case of “4YSyn: recombinant His-tagged C-terminal 40 aa α-Syn fragment containing all four tyrosine residues, non-nitrated”, the “proliferative response of SPC to in vitro stimulation with the antigen” value (SPC (spleen cells)) is reported as “no significant immune responses”, the “proliferation of anti-CD3 stimulated T cells” value [1] is reported as “not inhibited” and the “% PI+ T cells” value ([2]; 1 μg/ml) is reported as 4.9%. The “MFI of PI-stained T cells” value ([2]; 1 μg/ml) was 32.3, the “% PI+ T cells” value ([2]; 3 μg/ml) was 6% and the “MFI of PI-stained T cells” value ([2]; 3 μg/ml) was 34.1. The “% PI+ T cells” value ([2]; 10 μg/ml) was 4.7%, the “MFI of PI-stained T cells” value ([2]; 10 μg/ml) was 25.2 and the “% PI+ T cells” value ([2]; 30 μg/ml) was 4.2%. For the same compound, the “MFI of PI-stained T cells” value ([2]; 30 μg/ml) was 26.8.
glatiramer acetate [COP-1] was tested, and the “increase of mean age of survival compared to PBS controls” value (B6 SOD1 Tg mice; 75 μg s.c. every other week) was 6.1% and the “increase of mean age of survival compared to PBS controls” value (B6 SOD1 Tg mice; 75 μg s.c. weekly) was 9.9%.
`CN1CC=C(c2ccccc2)CC1` [MPTP, 1-methyl-4-phenyl-1,2,3,6-tetrahydropyridine] was tested, and the “numbers of TH+ neurons compared to PBS” value (TH+ neurons in the SN; SCID mice) was “No significant difference”, the “reduction in numbers of TH+ neurons in the SN compared to PBS” value (TH+ neurons in the SN; WT B6 mice, 21 days after last injection) was 33% and the “reduction of SN TH+ neurons compared to PBS controls” value ([3]; MPTP-treated B10.BR mice, stereology) was 45%. For the same compound, the “Counts of Mac-1+ microglia” value ([3]; SN of MPTP-treated B10.BR mice, mean±SEM) was 27.7±3.2 /mm^2, the “loss of TH+ nigral neurons compared to PBS-treated controls” value (MPTP-intoxicated B6 mice) was 43% and the “increase in numbers of Mac-1+ cells within the SNpc compared with PBS controls” value (MPTP-intoxicated mice [4]; 2 days post-MPTP) was “greater than 16 fold”. For the same compound, the “loss of nigral TH+ neurons compared with PBS controls” value (MPTP-intoxicated mice [4]; 7 days after MPTP, FIG. 35C) was 45%, the “reduction of SNpc TH+ neurons compared with PBS controls” value (MPTP-intoxicated mice [4]; 7 days after MPTP, FIG. 38B) was 48% and the “Striatal TH+ density” value (MPTP-intoxicated mice [4]; 7 days after MPTP, FIG. 38C) was 16 % of PBS controls. The “TH+ neuron survival” value (MPTP-intoxicated mice [4]; MPTP mice, FIG. 38D, Treg co-transferred with N-4YSyn SPC) was 49%, the “TH density within the striatum” value (MPTP-intoxicated mice [5]) was 26 % of PBS-treated controls and the “loss of TH+ neurons vs PBS-treated controls” value (MPTP-intoxicated mice [5]) was 25%. The “total TH+ neurons within the SNpc” value (MPTP-intoxicated mice [5]) was 5971±250.
With `CCCNC(=O)[C@H]1O[C@@H]1C(=O)N[C@H](C(=O)N1CCC[C@H]1C(=O)O)[C@@H](C)CC` [CA-074] the “protection of DA cells v. N-α-syn alone” value (MES23.5 cells) was 53%.
